Measured values published in US4323576A, “Derivatives of pyrazole for use in therapy” (Morishita Pharmaceutical Co., Ltd., priority 1979, dated 1982).

How the values were obtained:
hypertriglyceridemia = test: Pharmacological test against hypertriglyceridemia (fructose-induced); format: in vivo; conditions: serum, male SD rats, oral 3 times, 300 mg/kg as free carboxylic acid, after 48 hours, 10% fructose
Method: (i) Pharmacological test against hypertriglyceridemia:
The groups were made to be hypertriglyceridemia by giving an aqueous 10% by weight solution of fructose for 2 days, those of control group being given tap water. The administration of six kinds of the present derivatives and of nicotinic acid was as follows:
Each specimen of the present pyrazole derivatives and nicotinic acid was dissolved or dispersed into an aqueous 1% solution of carboxymethylcellulose (CMC) at a predetermined concentration, and the thus prepared solution or dispersion was orally administered 3 times in the volume of 0.5 ml/100 g body weight, that is, first dose just after the commencement of the present test, second dose after 24 hours of the first administration and third dose after 18 hours of the second administration. The dose of each compound was set so that each animal intaked 300 mg/kg of each compound as free carboxylic acid. The rats of control group were given the aqueous 1% solution of CMC only three times at the same intervals as the test groups. All the groups were fed with the same diet during the test period.
After 48 hours of the commencement of the test, blood sample was collected from each animal by amputation of the carotid artery, and serum was separated from the blood sample and frozen to be kept until lipid analysis.
Serum triglyceride was determined by Acetylacetone Method, and the reduction percentage of lipid was calculated by the following formula: [formula] wherein the amount is the average of the group.
Analysis for serum cholesterol:
The content of serum cholesterol was determined by an enzymatic method using cholesteroloxidase, and the reduction percentage of cholesterol was calculated by the following formula: [formula]

patients = conditions: administration to patients; cited from earlier work
serum lipid = conditions: Kupiecki et al. 1968; cited from earlier work
blood sugar-level = conditions: Land et al. 1975; cited from earlier work
hypercholesterolemia = test: Pharmacological test against hypercholesterolemia (high cholesterol diet); format: in vivo; conditions: male SD rats, oral 200 mg/kg/day for 7 days; for Reduction Percentage, Cholesterol in beta-lipoprotein: heparin-calcium precipitation
From the text: (ii) Pharmacological test against hypercholesterolemia:
Three groups of male SD rats each weighing ca. 150 g, each group consisting of five rats were used as the test animals and one group consisting of 10 rats was used as control. All animals were fed a high cholesterol diet consisted of 1% cholesterol, 0.2% sodium cholate, 5% olive oil and commercial diet up to total 100% for 7 days. The test compounds of the present invention and clofibrate, as a medicine for comparison, were respectively dissolved or dispersed in an aqueous 1% solution of CMC so that the volume of the solution or dispersion administered to each animal was 0.5 ml/100 g body weight/time, and the solution or dispersion was orally administered so that the amount of administration of each of the present pyrazole derivative or clofibrate was 200 mg/kg body weight/time. Actually, the administration was carried out once a day for 7 consecutive days. Water was taken ad lib. After 20 hours of fasting from the last administration, blood sample was taken by amputation of the carotid artery and the serum separated was frozen until the analysis of cholesterol shown as follows:
The content of serum cholesterol was determined by the above-mentioned method. The beta-lipoprotein-cholesterol was determined by "heparin-calcium precipitation method". The reduction percentages of cholesterol in serum and beta-lipoprotein were calculated in the same manner as above.

Structure (SMILES) | Reduction Percentage, Cholesterol (hypertriglyceridemia) | Reduction Percentage, Triglyceride (hypertriglyceridemia) | Reduction Percentage, Cholesterol in serum (hypercholesterolemia) | Reduction Percentage, Cholesterol in beta-lipoprotein (hypercholesterolemia) | also measured
CCCCCCCCCc1cc(C(=O)OCC)n[nH]1 [Ethyl 5-n-nonylpyrazole-3-carboxylate, ethyl 5-n-nonylpyrazole-3-carboxylate] | 29.5% | 63.1% | – | – | –
CCCCCCCCCCCc1cc(C(=O)OCC)n[nH]1 [Ethyl 5-n-undecylpyrazole-3-carboxylate, ethyl 5-n-undecylpyrazole-3-carboxylate] | 53.1% | 83.7% | – | – | –
O=C(O)c1cccnc1 [nicotinic acid, reference compound] | 16.4% | 24.1% | – | – | side effects (patients): causing flushing or eruptions on the face and skin
Cc1cc(C(=O)O)n[nH]1 [5-Methylpyrazol-3-carboxylic acid] | – | – | – | – | activity to reduce the level of serum lipid (serum lipid): activity to reduce the level of serum lipid; clinical effect in treatment of hyperlipemia (blood sugar-level): uncertainty of the derivative's clinical effect in treatment of hyperlipemia; side effect on blood sugar level (blood sugar-level): causing the reduction of blood sugar-level
CCOC(=O)C(C)(C)Oc1ccc(Cl)cc1 [Clofibrate, reference compound] | – | – | -3.5% | -2.0% | side effects (patients): causes the diseases in the bile duct system and is in danger of causing cancer
CCCCCCCc1cc(C(=O)O)n[nH]1 [5-n-heptylpyrazole-3-carboxylic acid] | 12.5% | 40.6% | – | – | –
CCCCCCCc1cc(C(=O)OCC)n[nH]1 [Ethyl 5-n-heptylpyrazole-3-carboxylate, ethyl 5-n-heptylpyrazole-3-carboxylate] | 2.1% | 41.1% | – | – | –
CCCCCCCCCCCc1cc(C(=O)O)n[nH]1 [5-n-undecylpyrazole-3-carboxylic acid] | 40.0% | 69.1% | 22.8% | 20.1% | –
CCCCCCCCCc1cc(C(=O)O)n[nH]1 [5-n-nonylpyrazole-3-carboxylic acid] | 12.2% | 66.5% | 11.1% | 0.6% | –
